Measured values from patent US3966896A, “Radioimmunoassay for plasma renin activity” (Mallinckrodt, Inc., priority 1974, dated 1976).
Several values for one entry are separate records, joined by “and”; a condition that tells them apart may be missing. Identical values can stand only once.

Assays:
[1] = system: antibody for angiotensin I; assay: Radioimmunoassay standard reactions: competitive binding of labeled and unlabeled angiotensin I to antibody; set-up: species or system rabbit
Experimental: Antiserum (Rabbit) 1.4 μl
A series of standard prereaction mixtures was prepared by transferring 0.1 ml aliquots of standard unlabeled angiotensin I solutions from the standard vials to a series of reaction vials. Standard prereaction mixtures were prepared using the standard solutions containing 6, 3, 2, 1, 0.8, 0.6, and 0.3 ng/ml unlabeled angiotensin I, respectively. Two blank prereaction mixtures were prepared by adding 0.1 ml pH 9.0 buffer to a reaction vial.
Reaction mixtures were prepared and radioimmunoassay commenced by adding antiserum solution (0.1 ml) to each of the base unknown, generated unknown, standard, and blank prereaction mixtures. Antiserum was withheld from one reaction vial used as a control. The reaction mixtures contained in each vial were then mixed gently on a vortex and incubated for 1 hour at 37°C. After incubation was completed, each reaction vial was taken out of the water bath, the cap removed and an anion exchange resin strip immersed in the contents of the vial. The vial was then recapped and placed on a rotator for 30 minutes at room temperature (21°-23°C.). At the end of 30 minutes, the resin strip was removed from each vial and placed in an empty vial. Radioactivity of both the strip containing the unbound ("free") angiotensin I and the supernatant liquid containing the antibody bound ("bound") angiotensin I was counted, and the percentage bound angiotensin I was determined from the following relationship: [formula]
From the data of Tables I and II, a graph was prepared in which the percent bound angiotensin I was plotted against nanograms of unlabeled standard angiotensin I contained in the standard reaction solutions for the two sets of standard reactions. FIG. 1 is that graph. […]
Standard radioimmunoassay reactions were carried out using duplicate blanks and standard solutions respectively containing 0.03, 0.06, 0.08, 0.1, 0.2, 0.3 and 0.6 ng. unlabeled angiotensin I per ml. A control was also run in which no antiserum was added to the prereaction mixture. The procedure of Example 2 was followed, except that the temperature and period of incubation of the radioimmunoassay reaction were varied. The following combinations of time and temperature were utilized for these standard radioimmunoassay reactions: […]

angiotensinogen = assay: Plasma renin activity, as angiotensin I generation rate; type: biochemical, human
Experimental: Blood was drawn from patient three into a tube coated with EDTA and the plasma separated by centrifugation and cooled to 4°C. To one ml. of the cold plasma were added portions of 8-hydroxyquinoline inhibiting solution (10 μl) and dimercaprol inhibiting solution (10 μl). The resulting unknown plasma sample was transferred to a generation vial containing generation buffer solution and mixed.
The generation vial was placed in a water bath controlled at 37°C. and generation was carried out for 3 hours. At the end of this time, the generated unknown sample was removed from the water bath, cooled in an ice bath, and three 100 μl aliquots thereof transferred to three reaction vials to provide three generated unknown radioimmunoassay prereaction mixtures containing generated plasma, human serum albumin, sodium azide preservative, HCl, and ^125 I labeled angiotensin I.
The renin activity of patient three's plasma was indicated by the angiotensin I generation rate determined from the following relationship: [formula] The factor of 30 is used because the plasma is initially diluted three-fold, and only 0.1 ml of the dilute plasma is used in the radioimmunoassay, while the angiotensin I generation rate is based on 1 ml.
Another sample of patient three's plasma was assayed in the manner described in Example 2, except that 2,2-dimethyl glutaric acid was used in place of potassium acid phthalate as the buffering component of the generation mixture. Results of radioactivity counting on the base and generated radioimmunoassay reaction mixtures obtained in the assay of this example are set forth in Table IV.
Following the procedure described in Example 2, a renin activity radioimmunoassay was conducted on the plasma of patient two. The results of radioactive counting and the percent bound antigen for the duplicate standard radioimmunoassay reaction mixture are set forth in Tables V and VI.
Another sample of patient two's plasma was assayed in the manner described in Example 4, except that 2,2-dimethylglutaric acid was used in place of potassium acid phthalate as a buffering component of the generation mixture. Results of radioactive counting on the base and generated radioimmunoassay mixtures obtained in the assay of this example are set forth in Table VIII.
A renin activity radioimmunoassay was conducted on the plasma of patient one. The procedure described in Example 2 was followed except that only one set of reactions was carried out in establishing the standard curve. Results of radioactive counting and the percent bound antigen for the standard radioimmunoassay reaction mixtures are set forth in Table IX.
Another sample of patient one's plasma was assayed in the manner described in Example 6, except that 2,2-dimethylglutaric acid was used in place of potassium acid phthalate as the buffering component of the generation mixture. Results of radioactivity counting on the base and generated radioimmunoassay reaction mixtures, together with the angiotensin I content of the ungenerated and generated samples, are set forth in Table XI.

**Q.** “Angiotensin I: decapeptide formed from angiotensinogen by renin; unlabeled standard in the radioimmunoassay (DRVYIHPFHL; Angiotensin-1; UniProt P01019 25-34, looked up)” was tested. Which “% Bound labeled angiotensin I” value ([1]; 0.03 ng unlabeled angiotensin I standard, 12°C, 1 hour) did it give?
**A.** 38.3%

**Q.** What about the “% Bound labeled angiotensin I” value ([1]; 0.03 ng unlabeled angiotensin I standard, 12°C, 5 hours) of the same molecule?
**A.** 60.8%

**Q.** What about the “% Bound labeled angiotensin I” value ([1]; 0.03 ng unlabeled angiotensin I standard, 20°C, 1 hour) of the same molecule?
**A.** 46.52%

**Q.** And the “% Bound labeled angiotensin I” value ([1]; 0.03 ng unlabeled angiotensin I standard, 20°C, 5 hours)?
**A.** 64.22%

**Q.** And the “% Bound labeled angiotensin I” value ([1]; 0.03 ng unlabeled angiotensin I standard, 37°C, 1 hour)?
**A.** 56.33% and 55.20% and 54.06% and 54.27% and 56.75% and 54.34%

**Q.** And the “% Bound labeled angiotensin I” value ([1]; 0.06 ng unlabeled angiotensin I standard, 12°C, 1 hour)?
**A.** 36.6%

**Q.** And the “% Bound labeled angiotensin I” value ([1]; 0.06 ng unlabeled angiotensin I standard, 12°C, 5 hours)?
**A.** 52.9%

**Q.** And the “% Bound labeled angiotensin I” value ([1]; 0.06 ng unlabeled angiotensin I standard, 20°C, 1 hour)?
**A.** 43.88%

**Q.** And the “% Bound labeled angiotensin I” value ([1]; 0.06 ng unlabeled angiotensin I standard, 20°C, 5 hours)?
**A.** 62.08%

**Q.** And the “% Bound labeled angiotensin I” value ([1]; 0.06 ng unlabeled angiotensin I standard, 37°C, 1 hour)?
**A.** 50.77% and 53.62% and 49.30% and 49.16% and 52.76% and 49.86%

**Q.** And the “% Bound labeled angiotensin I” value ([1]; 0.08 ng unlabeled angiotensin I standard, 12°C, 1 hour)?
**A.** 34.7%

**Q.** What about the “% Bound labeled angiotensin I” value ([1]; 0.08 ng unlabeled angiotensin I standard, 12°C, 5 hours) of the same molecule?
**A.** 50.4%

**Q.** What about the “% Bound labeled angiotensin I” value ([1]; 0.08 ng unlabeled angiotensin I standard, 20°C, 1 hour) of the same molecule?
**A.** 37.90%

**Q.** What about the “% Bound labeled angiotensin I” value ([1]; 0.08 ng unlabeled angiotensin I standard, 20°C, 5 hours) of the same molecule?
**A.** 53.73%

**Q.** What about the “% Bound labeled angiotensin I” value ([1]; 0.08 ng unlabeled angiotensin I standard, 37°C, 1 hour) of the same molecule?
**A.** 49.01% and 48.63% and 48.16% and 48.27% and 48.93% and 45.64%

**Q.** What about the “% Bound labeled angiotensin I” value ([1]; 0.1 ng unlabeled angiotensin I standard, 12°C, 1 hour) of the same molecule?
**A.** 34.3%

**Q.** What about the “% Bound labeled angiotensin I” value ([1]; 0.1 ng unlabeled angiotensin I standard, 12°C, 5 hours) of the same molecule?
**A.** 47.5%

**Q.** What about the “% Bound labeled angiotensin I” value ([1]; 0.1 ng unlabeled angiotensin I standard, 20°C, 1 hour) of the same molecule?
**A.** 40.23%

**Q.** And the “% Bound labeled angiotensin I” value ([1]; 0.1 ng unlabeled angiotensin I standard, 20°C, 5 hours)?
**A.** 50.27%

**Q.** What about the “% Bound labeled angiotensin I” value ([1]; 0.1 ng unlabeled angiotensin I standard, 37°C, 1 hour) of the same molecule?
**A.** 45.93% and 45.19% and 45.21% and 43.12% and 46.72% and 42.96%

**Q.** And the “% Bound labeled angiotensin I” value ([1]; 0.2 ng unlabeled angiotensin I standard, 12°C, 1 hour)?
**A.** 27.2%

**Q.** And the “% Bound labeled angiotensin I” value ([1]; 0.2 ng unlabeled angiotensin I standard, 12°C, 5 hours)?
**A.** 34.1%

**Q.** And the “% Bound labeled angiotensin I” value ([1]; 0.2 ng unlabeled angiotensin I standard, 20°C, 1 hour)?
**A.** 31.21%

**Q.** What about the “% Bound labeled angiotensin I” value ([1]; 0.2 ng unlabeled angiotensin I standard, 20°C, 5 hours) of the same molecule?
**A.** 32.23%

**Q.** And the “% Bound labeled angiotensin I” value ([1]; 0.2 ng unlabeled angiotensin I standard, 37°C, 1 hour)?
**A.** 35.75% and 35.05% and 29.50% and 28.39% and 34.97% and 30.79%

**Q.** What about the “% Bound labeled angiotensin I” value ([1]; 0.3 ng unlabeled angiotensin I standard, 12°C, 1 hour) of the same molecule?
**A.** 25.8%

**Q.** What about the “% Bound labeled angiotensin I” value ([1]; 0.3 ng unlabeled angiotensin I standard, 12°C, 5 hours) of the same molecule?
**A.** 24.4%

**Q.** And the “% Bound labeled angiotensin I” value ([1]; 0.3 ng unlabeled angiotensin I standard, 20°C, 1 hour)?
**A.** 23.71%

**Q.** What about the “% Bound labeled angiotensin I” value ([1]; 0.3 ng unlabeled angiotensin I standard, 20°C, 5 hours) of the same molecule?
**A.** 25.25%

**Q.** What about the “% Bound labeled angiotensin I” value ([1]; 0.3 ng unlabeled angiotensin I standard, 37°C, 1 hour) of the same molecule?
**A.** 29.47% and 31.32% and 28.06% and 26.30% and 27.55% and 27.52%

**Q.** And the “% Bound labeled angiotensin I” value ([1]; 0.6 ng unlabeled angiotensin I standard, 12°C, 1 hour)?
**A.** 15.9%

**Q.** And the “% Bound labeled angiotensin I” value ([1]; 0.6 ng unlabeled angiotensin I standard, 12°C, 5 hours)?
**A.** 16.6%

**Q.** And the “% Bound labeled angiotensin I” value ([1]; 0.6 ng unlabeled angiotensin I standard, 20°C, 1 hour)?
**A.** 15.54%

**Q.** What about the “% Bound labeled angiotensin I” value ([1]; 0.6 ng unlabeled angiotensin I standard, 20°C, 5 hours) of the same molecule?
**A.** 15.0%

**Q.** And the “% Bound labeled angiotensin I” value ([1]; 0.6 ng unlabeled angiotensin I standard, 37°C, 1 hour)?
**A.** 17.21% and 16.50% and 17.98% and 17.40% and 17.61% and 16.72%

B1: Renin: proteolytic enzyme secreted by juxtaglomerular cells in the kidney (protein, UniProt P00797 67-406, looked up)
Renin: LTLGNTTSSVILTNYMDTQYYGEIGIGTPPQTFKVVFDTGSSNVWVPSSKCSRLYTACVYHKLFDASDSSSYKHNGTELTLRYSTGTVSGFLSQDIITVGGITVTQMFGEVTEMPALPFMLAEFDGVVGMGFIEQAIGRVTPIFDNIISQGVLKEDVFSFYYNRDSENSQSLGGQIVLGGSDPQHYEGNFHYINLIKTGVWQIQMKGVSVGSSTLLCEDGCLALVDTGASYISGSTSSIEKLMEALGAKKRLFDYVVKCNEGPTLPDISFHLGGKEYTLTSADYVFQESYSSKKLCTLAIHAMDIPPPTGPTWALGATFIRKFYTEFDRRNNRIGFALAR
**Q.** How did the Renin activity (angiotensinogen; patient one plasma, glutarate generation buffer) turn out when B1 was run?
**A.** 1.31 ng/mL/h

**Q.** What about the Renin activity (angiotensinogen; patient one plasma, phthalate generation buffer) of the same molecule?
**A.** 0.849 ng/mL/h

**Q.** And the Renin activity (angiotensinogen; patient three plasma, glutarate generation buffer)?
**A.** 0.7 ng angiotensin I/ml/hr

**Q.** What about the Renin activity (angiotensinogen; patient three plasma, phthalate generation buffer) of the same molecule?
**A.** 0.42 ng/mL/h

**Q.** What about the Renin activity (angiotensinogen; patient two plasma, glutarate generation buffer) of the same molecule?
**A.** 2.91 ng/mL/h

**Q.** And the Renin activity (angiotensinogen; patient two plasma, phthalate generation buffer)?
**A.** 1.41 ng Angiotensin I/ml/hr
